The values below come from PubChem BioAssay (NCI).

Values joined by “and” are separate entries in the source; they are usually repeats but may differ in a detail not shown here. Equal values may be shown once.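 The compound was tested at five concentrations on cells cultured in 96-well plates, with a 48-hour exposure period. Here, GI50 denotes the concentration required for 50% inhibition of growth. TGI: total growth inhibition.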 Some results are limits rather than exact numbers.

The test system of one assay is SK-MEL-28 melanoma. Kind of assay: inhibition of tumour cell growth, NCI panel, 48 h.
Regarding `OCc1ccn2c1[C@@H](O)CC2`, the TGI is over 100 µM.
For the compound `Cc1[nH]c(/C=C2\C(=O)Nc3ccccc32)c(C)c1CCC(=O)O`, the GI50 was 25.4 µM; the TGI was 80 µM and 92.6 µM.
`c1ccc2c(c1)c1c(c3ccccc32)CN2CCCC2C1` (centres undefined) returned a TGI of 12.9 µM.
Regarding `O=C(c1ccc(/C=C/c2n[nH]c3ccccc23)cc1)N1CCNCC1`, the GI50 is 1.71 µM and 5.99 µM; the TGI is 3.34 µM and 19.8 µM.
Consider `CCOC(=O)c1c(NC(=O)c2cccc(C(F)(F)F)c2)sc2c(CN(C)C)c(O)ccc12`, for which the GI50 is 1.76 µM and the TGI is 3.21 µM.
With `O=C(Nc1ccc(-n2ccc3c(NC(=O)c4ccccc4)nccc32)cc1)Nc1ccc(Cl)c(Cl)c1`, the GI50 was 1.49 µM and the TGI was found to be 3.07 µM.
Consider `O=C1NC(=NCCc2cccc(Cl)c2)S/C1=C\c1ccc2ncccc2c1`, for which the GI50 is over 25 µM and the TGI was over 25 µM.
`N#CC1=C(N)Oc2cc(O)ccc2C1c1cccc2ccccc12` (centres undefined): the GI50 was 12.7 µM and the TGI came out at 27.9 µM.
On the same counts, the results for `C=C1C(=O)O[C@H]2[C@H]1CC/C(COC(=O)/C=C\C(=O)NCc1ccc(Cn3c(=O)sn(CCCC)c3=O)cc1)=C\CC[C@@]1(C)O[C@@H]21` are 1.41 µM and 2.74 µM.

The next assay has as its system OVCAR-8 ovarian. Kind of assay: inhibition of tumour cell growth, NCI panel, 48 h.
Turning to `OCc1ccn2c1[C@@H](O)CC2`, the TGI was over 100 µM.
Consider `Cc1[nH]c(/C=C2\C(=O)Nc3ccccc32)c(C)c1CCC(=O)O`, for which the GI50 was 34.7 µM and the TGI was over 100 µM.
In turn, `c1ccc2c(c1)c1c(c3ccccc32)CN2CCCC2C1` (centres undefined) returned a TGI of 14.5 µM.
In the case of `O=C(c1ccc(/C=C/c2n[nH]c3ccccc23)cc1)N1CCNCC1`, the GI50 is > 10 µM and 14.1 µM; the TGI is > 10 µM and 34.4 µM.
Take `CCOC(=O)c1c(NC(=O)c2cccc(C(F)(F)F)c2)sc2c(CN(C)C)c(O)ccc12`: the GI50 was 6.12 µM and the TGI came to 18.8 µM.
For `O=C(Nc1ccc(-n2ccc3c(NC(=O)c4ccccc4)nccc32)cc1)Nc1ccc(Cl)c(Cl)c1`, the GI50 is 1.26 µM and the TGI turned out to be 3.7 µM.
As to `O=C1NC(=NCCc2cccc(Cl)c2)S/C1=C\c1ccc2ncccc2c1`, the GI50 is over 25 µM and the TGI was over 25 µM.
For the compound `N#CC1=C(N)Oc2cc(O)ccc2C1c1cccc2ccccc12` (centres undefined), the GI50 was 23.7 µM and the TGI was 66.1 µM.
With `C=C1C(=O)O[C@H]2[C@H]1CC/C(COC(=O)/C=C\C(=O)NCc1ccc(Cn3c(=O)sn(CCCC)c3=O)cc1)=C\CC[C@@]1(C)O[C@@H]21`, the GI50 is 0.828 µM and the TGI worked out at 3.32 µM.

For the next assay, the system named is COLO 205 colon. Kind of assay: inhibition of tumour cell growth, NCI panel, 48 h.
In turn, `OCc1ccn2c1[C@@H](O)CC2` yielded a TGI of over 100 µM.
Consider `Cc1[nH]c(/C=C2\C(=O)Nc3ccccc32)c(C)c1CCC(=O)O`, for which the TGI is 43 µM and 45.9 µM.
`c1ccc2c(c1)c1c(c3ccccc32)CN2CCCC2C1` (centres undefined) displayed a TGI of 13.8 µM.
On to `O=C(c1ccc(/C=C/c2n[nH]c3ccccc23)cc1)N1CCNCC1`, for which the GI50 was 3.96 µM and 0.598 µM; the TGI was > 10 µM and 5.9 µM.
Take `CCOC(=O)c1c(NC(=O)c2cccc(C(F)(F)F)c2)sc2c(CN(C)C)c(O)ccc12`: the GI50 was 2.1 µM and the TGI was 4.66 µM.
On to `O=C(Nc1ccc(-n2ccc3c(NC(=O)c4ccccc4)nccc32)cc1)Nc1ccc(Cl)c(Cl)c1`, for which the GI50 is 1.42 µM and the TGI worked out at 3.27 µM.
With `O=C1NC(=NCCc2cccc(Cl)c2)S/C1=C\c1ccc2ncccc2c1`, the GI50 was over 25 µM and the TGI was over 25 µM.
On to `N#CC1=C(N)Oc2cc(O)ccc2C1c1cccc2ccccc12` (centres undefined), for which the GI50 is 16.5 µM and the TGI is 38.2 µM.
For `C=C1C(=O)O[C@H]2[C@H]1CC/C(COC(=O)/C=C\C(=O)NCc1ccc(Cn3c(=O)sn(CCCC)c3=O)cc1)=C\CC[C@@]1(C)O[C@@H]21`, the GI50 was 0.581 µM and the TGI was 2.37 µM.

The next assay concerns HL-60(TB) leukemia. Kind of assay: inhibition of tumour cell growth, NCI panel, 48 h.
In turn, `OCc1ccn2c1[C@@H](O)CC2` had a TGI of over 100 µM.
With `Cc1[nH]c(/C=C2\C(=O)Nc3ccccc32)c(C)c1CCC(=O)O`, the GI50 was 20.2 µM and the TGI stood at 45.8 µM.
Compound `c1ccc2c(c1)c1c(c3ccccc32)CN2CCCC2C1` (centres undefined) yielded a TGI of 4.21 µM.
Turning to `O=C(c1ccc(/C=C/c2n[nH]c3ccccc23)cc1)N1CCNCC1`, the GI50 was 1.94 µM and 4.15 µM; the TGI was 4.45 µM and 22.3 µM.
Turning to `CCOC(=O)c1c(NC(=O)c2cccc(C(F)(F)F)c2)sc2c(CN(C)C)c(O)ccc12`, the GI50 was 1.89 µM and the TGI worked out at 4.26 µM.
Take `O=C(Nc1ccc(-n2ccc3c(NC(=O)c4ccccc4)nccc32)cc1)Nc1ccc(Cl)c(Cl)c1`: the GI50 is 1.25 µM and the TGI worked out at 4.22 µM.
On the same counts, the results for `O=C1NC(=NCCc2cccc(Cl)c2)S/C1=C\c1ccc2ncccc2c1` are over 25 µM and over 25 µM.
Turning to `N#CC1=C(N)Oc2cc(O)ccc2C1c1cccc2ccccc12` (centres undefined), the GI50 is 3.16 µM and the TGI is 11.7 µM.
As to `C=C1C(=O)O[C@H]2[C@H]1CC/C(COC(=O)/C=C\C(=O)NCc1ccc(Cn3c(=O)sn(CCCC)c3=O)cc1)=C\CC[C@@]1(C)O[C@@H]21`, the GI50 is 0.396 µM and the TGI worked out at 1.77 µM.

Another assay deals with NCI-H23 lung. The assay can be described thus: inhibition of tumour cell growth, NCI panel, 48 h.
The compound `OCc1ccn2c1[C@@H](O)CC2` showed a TGI of over 100 µM.
`Cc1[nH]c(/C=C2\C(=O)Nc3ccccc32)c(C)c1CCC(=O)O`: the GI50 is 20.3 µM; the TGI was 73.4 µM and > 100 µM.
As to `c1ccc2c(c1)c1c(c3ccccc32)CN2CCCC2C1` (centres undefined), the TGI is 10.3 µM.
For the compound `O=C(c1ccc(/C=C/c2n[nH]c3ccccc23)cc1)N1CCNCC1`, the GI50 was > 10 µM and 2.55 µM; the TGI is > 10 µM and 16.9 µM.
In the case of `CCOC(=O)c1c(NC(=O)c2cccc(C(F)(F)F)c2)sc2c(CN(C)C)c(O)ccc12`, the GI50 was 13.1 µM and the TGI came out at 32.1 µM.
`O=C(Nc1ccc(-n2ccc3c(NC(=O)c4ccccc4)nccc32)cc1)Nc1ccc(Cl)c(Cl)c1`: the GI50 was 5.2 µM and the TGI stood at 28.6 µM.
Regarding `O=C1NC(=NCCc2cccc(Cl)c2)S/C1=C\c1ccc2ncccc2c1`, the GI50 was over 25 µM and the TGI was over 25 µM.
With `N#CC1=C(N)Oc2cc(O)ccc2C1c1cccc2ccccc12` (centres undefined), the GI50 is 10.2 µM and the TGI was 22.6 µM.
With `C=C1C(=O)O[C@H]2[C@H]1CC/C(COC(=O)/C=C\C(=O)NCc1ccc(Cn3c(=O)sn(CCCC)c3=O)cc1)=C\CC[C@@]1(C)O[C@@H]21`, the GI50 was 1.4 µM and the TGI was 2.89 µM.
